This passage reports EC50 results from patent publication US8846948B2, “Compounds” (Boehringer Ingelheim International GmbH, priority 2011, dated 2014).

The target of this experiment is T1, human recombinant mGluR5 (Homo sapiens, UniProt P41594).
T1 construct: expressed in transfected cells; host or cells: HEK 293 cell line, cultured with tetracycline, hygromycin and geneticin
T1 sequence (P41594 21-1212): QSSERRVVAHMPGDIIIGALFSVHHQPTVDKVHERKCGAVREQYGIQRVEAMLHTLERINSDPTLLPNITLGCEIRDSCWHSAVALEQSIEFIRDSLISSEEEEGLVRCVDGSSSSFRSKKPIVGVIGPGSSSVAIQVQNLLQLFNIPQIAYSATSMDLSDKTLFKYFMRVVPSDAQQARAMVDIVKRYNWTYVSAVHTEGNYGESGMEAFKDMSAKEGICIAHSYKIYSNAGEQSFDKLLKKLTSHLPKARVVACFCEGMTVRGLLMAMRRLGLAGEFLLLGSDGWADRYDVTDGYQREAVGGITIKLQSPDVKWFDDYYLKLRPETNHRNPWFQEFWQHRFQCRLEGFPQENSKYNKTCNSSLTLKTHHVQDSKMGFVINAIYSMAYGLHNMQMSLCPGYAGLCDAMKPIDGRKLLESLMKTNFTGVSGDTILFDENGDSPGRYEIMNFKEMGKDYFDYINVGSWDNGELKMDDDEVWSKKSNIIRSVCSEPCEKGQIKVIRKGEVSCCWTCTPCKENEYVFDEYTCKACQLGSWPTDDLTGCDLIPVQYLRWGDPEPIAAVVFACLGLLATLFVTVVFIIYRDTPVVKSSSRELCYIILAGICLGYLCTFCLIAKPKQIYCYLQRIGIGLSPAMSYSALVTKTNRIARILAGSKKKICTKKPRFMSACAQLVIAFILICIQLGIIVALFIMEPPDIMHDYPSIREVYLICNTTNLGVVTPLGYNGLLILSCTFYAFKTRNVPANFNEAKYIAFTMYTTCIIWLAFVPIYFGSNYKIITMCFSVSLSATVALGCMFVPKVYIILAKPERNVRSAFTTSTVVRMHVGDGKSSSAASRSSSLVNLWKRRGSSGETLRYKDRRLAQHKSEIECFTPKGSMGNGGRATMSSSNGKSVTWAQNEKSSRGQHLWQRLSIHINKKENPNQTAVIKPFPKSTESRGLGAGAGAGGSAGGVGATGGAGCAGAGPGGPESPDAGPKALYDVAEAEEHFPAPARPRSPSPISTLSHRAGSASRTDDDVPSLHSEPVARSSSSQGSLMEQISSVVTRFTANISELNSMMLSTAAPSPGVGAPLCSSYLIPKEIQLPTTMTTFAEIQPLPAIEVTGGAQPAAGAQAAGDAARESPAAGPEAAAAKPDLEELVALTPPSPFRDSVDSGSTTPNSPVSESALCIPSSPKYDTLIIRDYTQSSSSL
The experiment is described as follows: Positive modulation of mGluR5, calcium based FLIPR assay. The conditions noted are these: EC50 of the modulation; HEK 293 cell line expressing human recombinant mGluR5; peak height of Ca release fluorescence signal after glutamate at approximately 5% basal stimulation. The protocol: The positive modulation of mGluR5 is measured in a HEK 293 cell line expressing human recombinant mGluR5 and is detected with calcium based FLIPR assay. The cells are cultured with DMEM supplemented with 10% FCS, 2 μg/mL tetracycline, 100 μg/mL hygromycin and 500 μg/mL gneticin. The cell culture media is exchanged for tetracycline-free cell culture media 3-7 days before the assay. One day before the assay the cell culture medium is exchanged to DMEM without glutamine and phenol red and supplemented with 10% FCS, 100 μg/mL hygromycin and 500 μg/mL geneticin. On the assay day, the medium of the subconfluent cultures is removed and the cells are detached by addition of 2.5 ml EDTA (0.02%) per 175 cm2 culture flask for 1 minute. The cells are resuspend in Ringer solution (140 mM NaCl, 5 mM KCl, 2.5 mM CaCl2, 1.5 mM MgCl2, 5 mM Glucose, 10 mM Hepes; adjusted to pH 7.4 with NaOH), pooled and Ringer solution added to adjust the volume to 50 mL. The cell suspension is centrifuged for […] at 1500 U/min (425 g). The supernatant is removed and the cells washed a second time with 50 ml fresh Ringer solution and centrifuged again as before. The supernatant is again removed and the pellet resuspended in Ringer solution to 1,000,000 cells/ml (1×10^6 cells/mL). The cells are plated onto BD BioCoat Poly-D-Lysine 384 well plates (20.000 cells/well; 20 μl/well). The lid covered plates are then incubated until use at 37° C./10% CO2. For dye loading, 20 μl of Calcium-4 assay kit solution (prepared according to the manufacturer's description in Ringer solution) are added to the cells and the plates are incubated for […] 37° C. and then […] at room temperature.
Controls, Compound dilution and assay execution:
Each assay plate contained wells with “high” and “low” controls:
Low controls 1% DMSO/ringer solution+basal glutamate activation (defined as 100% CTL).
High controls 10 μM CDPPB+basal glutamate activation (defined as 200% CTL).
Test compounds are dissolved and diluted in DMSO to 100-fold the desired concentrations. In a second step, the compounds are diluted in Ringer solution such that the compounds are 4-fold more concentrated than the desired final assay concentration. The final DMSO concentration was 1%.
20 μl of each compound solution are then transferred to the assay plate and the Ca2+ kinetic is measured to determine any intrinsic compound activity. After 5 mM incubation in the FLIPR device, the second stimulation with 20 μl of glutamate in Ringer solution (glutamate concentration adjusted to approximately 5% basal stimulation of the maximal possible glutamate effect) is added and the kinetic Ca2+ response of the wells was measured for the modulation effect.
The peak height of the Ca release related fluorescence signal (9-66) is used for the EC50. The EC50 of the modulation is calculated over a nonlinear regression with GraphPad Prism (Table 1).
As to `Cc1ccc(-c2cn(CC(=O)N3CCN(c4ncccn4)CC3)c(-c3ccccc3)n2)cc1Cl` [Example 7.03.09.], the EC50 (usually the concentration needed to bring the measured effect to its halfway point) turned out to be 48 nM.

Turning to `O=C(Cn1cc(-c2ccc(F)c(F)c2)nc1-c1ccccc1)N1CCN(c2ncccn2)CC1` [Example 7.03.10.], the EC50 turned out to be 159 nM. On to `CN1CCOc2cc(-c3cn(CC(=O)N4CCN(c5ncccn5)CC4)c(-c4ccccc4)n3)ccc21` [Example 7.03.11.], for which the EC50 was 914 nM.

With `COc1cc(-c2cn(CC(=O)N3CCN(c4ncccn4)CC3)c(-c3ccccc3)n2)ccc1C` [Example 7.03.12.], the EC50 came to 29 nM. Then `O=C(Cn1cc(-c2cccc(Cl)c2)nc1-c1ccccc1)N1CCN(c2ncccn2)CC1` [Example 7.03.13.], with 158 nM; and `O=C(Cn1cc(-c2cccc(C(F)(F)F)c2)nc1-c1ccccc1)N1CCN(c2ncccn2)CC1` [Example 7.03.14.], with 183 nM; and `O=C(Cn1cc(-c2ccc3c(c2)CCCO3)nc1-c1ccccc1)N1CCN(c2ncccn2)CC1` [Example 7.03.15.], with 61 nM.

Turning to `Cn1cnc2ccc(-c3cn(CC(=O)N4CCN(c5ncccn5)CC4)c(-c4ccccc4)n3)cc21` [Example 7.03.16.], the EC50 turned out to be 1530 nM.

As for `COc1cc(-c2cn(CC(=O)N3CCN(c4ncccn4)CC3)c(-c3ccccc3)n2)ccc1F` [Example 7.03.17.], the EC50 came out at 40 nM. Then `CCc1ccc(-c2cn(CC(=O)N3CCN(c4ncccn4)CC3)c(-c3ccccc3)n2)cc1` [Example 7.03.18.], with 74 nM.
